Literature values as cited in patent US6340484B1, “Compositions containing neem seed extracts and saccharide” (E.I.D. Parry (India) Limited, priority 2000, dated 2002).
Where two headings read alike, the source gives them in different places.

Settings: 25 days at 29+/−1° C.

## C/C=C(\C)C(=O)O[C@H]1C[C@@H](OC(C)=O)[C@@]2(C(=O)OC)CO[C@H]3[C@@H](O)[C@@](C)([C@]45O[C@@]4(C)[C@@H]4C[C@H]5O[C@@H]5OC=C[C@@]54O)[C@H]4[C@]1(CO[C@]4(O)C(=O)OC)[C@@H]32 [azadirachtin A]
In acetone
  degradation of azadirachtin A: 50%
In carbon tetrachloride
  degradation of azadirachtin A: 75-80%
In chloroform
  degradation of azadirachtin A: 75-80%
In ethanol
  degradation of azadirachtin A: about 85%
In methanol
  degradation of azadirachtin A: 50%
In methylene chloride
  degradation of azadirachtin A: 75-80%
In water
  degradation of azadirachtin A: about 85%
